Data on one compound can be found in patent publication US20230263817A1, “HIGH DOSE NICOTINAMIDE ADENINE DINUCLEOTIDE (NAD) PRECURSOR REGIMENS FOR REDUCTION OF INFLAMMATION IN HUMAN PATIENTS WITH PREEXISTING INFLAMMATION” (University of Washington, priority 2021, published 2023).

Data set [1] concerns NLRP3 and pro-inflammatory cytokine (IL1β, IL6, IL18, TNFα) mRNA in healthy PBMCs. In words: RT-qPCR of NLRP3 and pro-inflammatory cytokine mRNA in healthy PBMCs treated in vitro. It counts as cell-based, human. Here is the method: PBMC and Monocyte Culture. Freshly isolated PBMCs or Monocytes from healthy or HF subjects were resuspended with RPMI medium plus 10% heat inactivated FBS. PBMCs (10^6 cells/well) were seeded in Seahorse 24-well plates and incubated at 37° C. in CO2 incubator with various proinflammatory triggers (Vehicle, MitoDAMP, LPS) and compounds (NR, MCC 950, MitoTempo, or LMT-28). After 4 hours incubation, the plate was centrifuged at 40 g for 10 minutes at room temperature without application of the brake to help cells attach to the bottom of the plate. The cells were washed twice and then brought up to 500 μL using Seahorse base medium (Agilent Technologies, supplemented with 1 mM pyruvate, 2 mM glutamine, and 10 mM glucose, pH 7.4).
IL6 ELISA. Isolated PBMCs (4×10^6 cells per sample) from healthy or HF participants were resuspended in RPMI medium containing 10% heat-inactivated FBS and treated with various proinflammatory triggers (Vehicle, MitoDAMP, LPS) and compounds (NR, MCC 950, MitoTempo, or LMT-28) to final PBMC concentrations of 10×10^6 cells per mL. See below for detailed descriptions of the reagents. The samples were incubated in Eppendorf tubes at 37° C. in a 5% CO2 incubator with caps open for times designated in the brief description of drawings. The cultured PBMC samples were centrifuged at 8,000 RPM at room temperature. The supernatant was used for ELISA per the manufacture protocol using R&D Systems human IL6 kit (Cat #DY206-05). The cell pellets were stored in −80° C.
RNA Isolation and Quantitative PCR analysis. Total RNA was isolated from frozen PBMC pellets using Trizol (Invitrogen) per the manufacturer's instructions, and cDNA was synthesized using iScript™ Reverse Transcription Supermix (Bio-rad) per the manufacturer's instructions. Real-time PCR was performed in the Corbett rotor gene 6000 real-time PCR machine using iQ™ SYBR® Green Supermix (Bio-rad) and expression levels of the indicated genes were calculated using the ΔΔCt method.
A general note: In qPCR the cycle at which signal appears reflects the starting amount.

The nature of data set [2]: Randomized placebo-controlled 12-week trial of NR in clinically-stable HFrEF: safety and tolerability. It counts as in vivo, human. The source says: The remaining 30 participants met all the prespecified inclusion criteria of: 1) Systolic HF (LVEF<40%, as determined by transthoracic echocardiogram) of non-ischemic or ischemic etiologies, 2) clinically stable (no cardiac procedures or hospitalizations for cardiac causes, including HF, ischemia or arrhythmia) within the prior 3 months, 3) ability to perform Study procedures (including study visits, blood draws and 6MWT), 4) willingness/ability to provide informed consent. None had any of the following exclusion criteria: 1) Heart failure with preserved ejection fraction (LVEF>40%), 2) HF etiologies other than non-ischemic or ischemic, 3) cardiac procedures, including, cardiac surgery, PCI, or cardiac device implantation, within the previous 3 months, 4) hospitalizations for cardiovascular causes, including HF, chest pain, stroke/TIA or arrhythmias within the prior 3 months, 5) inability to perform Study visits or procedures (e.g., physical inability to perform 6MWT), 6) unwillingness or inability to provide informed consent, 7) Alanine transaminase (ALT)>×3 upper limit of normal, hepatic insufficiency or active liver disease, 8) recent history of acute gout, 9) chronic renal insufficiency with serum creatinine ≥2.5 mg/dl, 10) pregnant or likely to become pregnant, 11) significant co-morbidity likely to cause death within 6 months, 12) significant history of active substance abuse within the previous 5 years, 13) current participation in a clinical trial of a study drug or intervention, and 14) prior intolerance to NR precursors, including niacin or nicotinamide. Follow-up was completed on all 30 participants. Study medication was discontinued in one participant due to gastrointestinal intolerance, but they completed all follow-up visits and procedures. The final participant refused to complete any study visits or procedures after the Week 0 (Randomization Visit), but their vital status was confirmed at the end of the Study. No participants were excluded from analysis, which followed the principal of intention-to-treat. The standardized method for characterizing adverse events employed in the UW Clinical Trials Unit is the Common Terminology Criteria for Adverse Events v3.0 (CTCAE). There were 18 protocol deviations.
Study Design: The overall Study Design is depicted graphically in FIG. 15. Participant clinic visits, medication dispensing and data collection were performed on the Translational Research Unit (TRU) at the University of Washington (UW). […] History included assessment with the Minnesota Living with Heart Failure Questionnaire (MLHFQ), under license from the University of Minnesota (Minneapolis, Minn.).
Participants were randomized to NR or placebo at a 2:1 allocation ratio by the University of Washington Investigational Drug Service, which assigned Study IDs and dispensed study medications.
At Week 0 (Randomization), participants underwent history, repeat 6MWD assessment and baseline transthoracic echocardiogram (FIG. 15). NR or matching placebo were started at the initial dose of 250 mg orally twice daily, then up-titrated by 250 mg twice daily each week to a final dose of 1000 mg twice daily by Week 3. Participants were continued on the 1000 mg twice daily dose until the final clinic visit on Week 12. Blood draws for study labs, including levels of NR and NAD were obtained at Weeks 0, 2, 4 and 12. Medications were dispensed at Weeks 0, 2, 4 and 8, with pill counts performed at Weeks 2, 4, 8 and 12. A telephone visit was performed at Week 6. The final echocardiogram and PBMC mitochondrial respiration assays were performed at Week 12. Study labs were performed by the UW Research Testing Service, except for NR and NAD+ assays, which were performed by the Pharmacokinetics Laboratory, Department of Pharmaceutics, UW School of Pharmacy. Procedures for blood collection and processing, as well as NR and NAD+ assay procedures, have been described previously (Airhart S E, et al., PLoS One. 2017, 12:e0186459).

A short description of data set [3]: Adverse effects of oral NR in Stage D HF patients. It counts as in vivo, human. Conditions: oral NR 5-9 days, 5 participants. Here is the method:
For experiments associated with the oral NR administration (FIGS. 12C-12F), 5 hospitalized Stage D HF patients undergoing advanced heart failure therapy evaluations were put on escalating doses of NR (250 mg twice a day for Day 1, 500 mg twice a day for Day 2, and 1000 mg twice a day from Day 3 on) for 5-9 days. Fasting blood samples were obtained for PBMC isolation at baseline and post-NR administration. Subject 5 was withdrawn due to a change in clinical course deemed to be independent from NR administration.

In the case of `NC(=O)c1ccc[n+]([C@@H]2O[C@H](CO)[C@@H](O)[C@H]2O)c1` [NR, nicotinamide riboside], the “proinflammatory cytokine gene expressions” value in data set [1] (4-hour 10 ng/mL LPS with 1 mM NR relative to LPS alone) is given as “reducing”; in data set [1] (4-hour MitoDAMP with 1 mM NR relative to MitoDAMP only), “reduction”. Besides, the “total AEs reported on-trial” value in data set [2] (20-participant NR group) was found to be 63. Also, the “treatment-emergent laboratory abnormalities, NR vs placebo” value in data set [2] (HFrEF, 12 weeks) is “no significant differences”. Moreover, in data set [2] (HFrEF, up to 1000 mg twice daily, 12 weeks), the “treatment-emergent adverse events (AEs), NR vs placebo” value is on record as “no between-group differences”. For the same compound, the safety and tolerability entry in data set [2] (dose up to 1000 mg twice daily, total treatment duration of 12 weeks) is given as “well-tolerated”. In data set [2] (patients randomized to NR), the out-of-range lab values entry is “creatinine greater than 1.5× but less than 3× baseline on 2 occasions in 1 patient”. The “percentages of dispensed capsules taken (range)” value in data set [2] (returned pill counts, NR group) is 97 (91-100) %. For the same compound, the “adverse effect associated with NR” value in data set [3] is “No adverse effect”.
